Test [1] has as its system chick dorsal root ganglia. Briefly: Neurite outgrowth in chick dorsal root ganglion cultures. The following applies: for pEC50: Gallus gallus, chick DRG explants, 48 h after drug treatment, read-out: ED50, Neurite Outgrowth in DRG cultures. The test is classed as cell-based. The protocol: In the present work explants of chick dorsal root ganglia have been used, which are easier to employ in studies of nerve outgrowth.
Chick Dorsal Root Ganglion Cultures and Neurite Outgrowth
Dorsal root ganglia were dissected from chick embryos of ten day gestation. Whole ganglion explants were cultured on thin layer Matrigel-coated 12 well plates with Liebovitz L15 plus high glucose media supplemented with 2 mM glutamine and 10% fetal calf serum, and also containing 10 μM cytosine β-D arabinofuranoside (Ara C) at 37° C. in an environment containing 5% CO2. Twenty-four hours later, the DRGs were treated with various concentrations of nerve growth factor, immunophilin ligands or combinations of NFG plus drugs. Forty-eight hours after drug treatment, the ganglia were visualized under phase contrast or Hoffman Modulation contrast with a Zeiss Axiovert inverted microscope. Photomicrographs of the explants were made, and neurite outgrowth was quantitated. Neurites longer than the DRG diameter were counted as positive, with total number of neurites quantitated per each experimental condition. Three to four DRGs are cultured per well, and each treatment was performed in duplicate. Data from 6-10 different concentrations were used to generate dose-response curves, from which ED50 values were calculated.

A further test deals with PC12 cells. The following applies: picomolar concentrations; cited from earlier work.
The next test concerns sciatic nerve lesions. Conditions: whole animal experiments; cited from earlier work.
The next test relates to facial nerve injury. The following applies: whole animal experiments; cited from earlier work.
The next test deals with rat dorsal root ganglia. Conditions: rat DRG explants, cited from earlier work.
Test [2] has as its system growth-associated protein-43 (GAP43). The following applies: cited from earlier work.
Test [3] concerns dorsal root ganglion cells (DRGs). Conditions: picomolar concentrations; sensory neurons; cited from earlier work.

pEC50: −log10 of the molar value.

On to `O=C(C(=O)N1CCCC[C@H]1C(=O)OC(CCCc1ccccc1)CCCc1cccnc1)c1ccccc1` (stereo partly shown) [Compound 17], for which the pEC50 in test [1] is 8.30 to 9.00.
For `COC(=O)C(=O)N1CCCC[C@H]1C(=O)OCCCC1CCCC1` [Example 10], the pEC50 in test [1] is < 5.00.
On to `C=CC[C@@H]1/C=C(\C)C[C@H](C)C[C@H](OC)[C@H]2O[C@@](O)(C(=O)C(=O)N3CCCC[C@H]3C(=O)O[C@H](/C(C)=C/[C@@H]3CC[C@@H](O)[C@H](OC)C3)[C@H](C)[C@@H](O)CC1=O)[C@H](C)C[C@@H]2OC` [FK506], for which the “stimulation of neurite outgrowth” value was “stimulate neurite out growth in PC12 cells” with PC12 cells; “stimulate neurite out growth in PC12 cells and sensory neurons” in test [3]. Further, the “functional recovery in animals with sciatic nerve lesions” value in the test with sciatic nerve lesions is recorded as “functional recovery in animals with sciatic nerve lesions”. The “nerve regeneration following facial nerve injury” value with facial nerve injury is “stimulate nerve regeneration following facial nerve injury”. Further, in the test on rat dorsal root ganglia (no NGF), the “neurotrophic effects in the absence of NGF” value was “neurotrophic effects were observed”. For the same compound, the “lowest concentration with significant augmentation in nerve outgrowth” value with rat dorsal root ganglia is listed as 1 picomolar. Also, the “phosphorylation of GAP43” value in test [2] was “augments the phosphorylation”.
Consider `COc1cc(C(=O)C(=O)N2CCCC[C@H]2C(=O)OCc2cccc(Oc3ccccc3)c2)cc(OC)c1OC` [Example 13], for which the pEC50 in test [1] was 9.74.
On to `CO[C@H]1C[C@@H]2CC[C@@H](C)[C@@](O)(O2)C(=O)C(=O)N2CCCC[C@H]2C(=O)O[C@H]([C@H](C)C[C@@H]2CC[C@@H](O)[C@H](OC)C2)CC(=O)[C@H](C)/C=C(\C)[C@@H](O)[C@@H](OC)C(=O)[C@H](C)C[C@H](C)/C=C/C=C/C=C/1C` [rapamycin], for which the “stimulation of neurite outgrowth” value in the test with PC12 cells was “stimulate neurite out growth in PC12 cells”; in test [3], “stimulate neurite out growth in PC12 cells and sensory neurons”.
As to `O=C(C(=O)N1CCCC[C@H]1C(=O)OCc1ccccc1)c1ccccc1` [Example 1], in test [1], the pEC50 was 7.00 to 7.60.
As to `COc1cc(C(=O)C(=O)N2CCCC[C@H]2C(=O)OCCCCC2CCCCC2)cc(OC)c1OC` [Example 12], the pEC50 in test [1] is 10.51.
With `COc1cc(C(=O)C(=O)N2CCCC[C@H]2C(=O)OCCCc2c[nH]c3ccccc23)cc(OC)c1OC` [Example 15], the “neurite outgrowth in cultured sensory neurons (photomicrograph)” value in test [1] (300 pM) is listed as “stimulation of neurite outgrowth”. For the same compound, the pEC50 in test [1] was 10.26.
For `COc1ccc(CCCC(CCCc2ccccc2)OC(=O)[C@@H]2CCCCN2C(=O)C(=O)c2cc(OC)c(OC)c(OC)c2)cc1` (stereo partly shown) [Compound 24], the pEC50 in test [1] was 9.30.
The same measure, in the same setting: under `COc1ccc(CCCCOC(=O)[C@@H]2CCCCN2C(=O)C(=O)c2ccccc2)cc1` [Example 3] stands 9.30; under `COc1ccc(CCCCOC(=O)[C@@H]2CCCCN2C(=O)C(=O)c2cc(OC)c(OC)c(OC)c2)cc1` [Example 16], 10.52.
Regarding `O=C(C(=O)N1CCCC[C@H]1C(=O)OCCCc1ccccc1)c1ccccc1` [Example 2], the pEC50 in test [1] is 7.70 to 8.00.
On to `COC(=O)C(=O)N1CCCC[C@H]1C(=O)OCCCC1CCCCC1` [Example 9], for which the pEC50 in test [1] was < 5.00.
Regarding `O=C(C(=O)N1CCCC[C@H]1C(=O)OCc1ccccc1)c1ccco1` [Example 11], the pEC50 in test [1] is 6.00.
With `O=C(C(=O)N1CCCC[C@H]1C(=O)OCCc1ccccc1)c1ccccc1` [Example 5], the pEC50 in test [1] was 7.00 to 7.60.
Regarding `O=C(C(=O)N1CCCC[C@H]1C(=O)OCCCCC1CCCCC1)c1ccccc1` [Example 6], in test [1], the pEC50 was 7.70 to 8.00.
Regarding `COC(=O)C(=O)N1CCCC[C@H]1C(=O)OCc1ccccc1` [Example 7], the pEC50 in test [1] was < 5.00.
For `COc1cc(C(=O)C(=O)N2CCCC[C@H]2C(=O)OC(CCCc2ccccc2)CCc2cccnc2)cc(OC)c1OC` (stereo partly shown) [Compound 22], the “neurite outgrowth in cultured sensory neurons (photomicrograph)” value in test [1] (1 nM) is reported as “responding to trophic effects”. Further, the pEC50 in test [1] was 9.02.
As for `COC(=O)C(=O)N1CCCC[C@H]1C(=O)OCCCCC1CCCCC1` [Example 8], in test [1], the pEC50 is < 5.00.
On to `COc1cc(C(=O)C(=O)N2CCCC[C@H]2C(=O)OCCCCc2ccccc2)cc(OC)c1OC` [Example 14], for which the pEC50 in test [1] was 8.30 to 9.00.
As for `O=C(C(=O)N1CCCC[C@H]1C(=O)OCCCCc1ccccc1)c1ccccc1` [Example 4], in test [1], the pEC50 was 7.00 to 7.60.
For the compound `COc1ccc(CCC(CCCc2ccccc2)OC(=O)[C@@H]2CCCCN2C(=O)C(=O)c2ccccc2)cc1` (stereo partly shown) [Compound 19], the pEC50 in test [1] was 7.70 to 8.00.
Take `COc1cc(C(=O)C(=O)N2CCCC[C@H]2C(=O)OC(CCCc2ccccc2)CCCc2ccccn2)cc(OC)c1OC` (stereo partly shown) [Compound 23]: the pEC50 in test [1] is 7.60.
Consider `O=C(C(=O)N1CCCC[C@H]1C(=O)OC(CCCc1ccccc1)CCCc1ccccc1)c1ccccc1` [Compound 20], for which, in test [1], the pEC50 was 11.36.
Consider `COc1cc(C(=O)C(=O)N2CCCC[C@H]2C(=O)OC(CCCc2ccccc2)CCCc2ccccc2)cc(OC)c1OC` [Compound 21], for which the “dose-dependence of neurotrophic effects in neuronal cultures” value in test [1] (FIG. 3, cultured sensory neurons) was “dose-dependent neurotrophic effects”. In addition, the pEC50 in test [1] was 9.21.
Take `CC(C)Oc1cccc(C(=O)C(=O)N2CCCC[C@H]2C(=O)OC(CCCc2ccccc2)CCCc2cccnc2)c1` (stereo partly shown) [Compound 25]: the pEC50 in test [1] was 9.52.
With `O=C(C(=O)N1CCCC[C@H]1C(=O)OC(CCCc1ccccc1)CCCc1ccccn1)c1ccccc1` (stereo partly shown) [Compound 18], the pEC50 in test [1] was 10.20.

Source of the values: US5801197A, “Rotamase enzyme activity inhibitors” (GPI Nil Holdings, Inc., priority 1996, dated 1998).
